A short description of data set [1]: compound stability remark in Table 1. Format: physicochemical.
In data set [2] the test system is human tumor cell lines. Briefly: MTT assays, cell line not given. The class given is cell-based. The conditions noted are these: cell line not stated; for relative cytotoxic / biological activity: MTT; for IC50: Homo sapiens. How it is done:
(§1) The cytotoxicity assay of various CL2 compounds against human tumor cell lines was performed using the MTT (3-[4,5-dimethylthiazol-2-yl]-2,5-diphenyl tetrazolium bromide) assay (Boehringer Mannheim Corp., Indianapolis, Ind.). Briefly, exponentially growing tumor cells were seeded into a 96-well plate at a density of 2.5×10^4 cells/well and incubated for 36 hours at 37° C. prior to compound exposure. On the day of treatment, culture medium was carefully aspirated from the wells and replaced with fresh medium containing the CL2 compounds at concentrations ranging from 0.0 to 100 μM. Triplicate wells were used for each treatment.
(§2) Human cell lines were obtained from American Type Culture Collection (Rockville, Md.) and maintained as a continuous cell line in Dulbecco's modified Eagles' medium supplemented with 10% fetal bovine serum and antibiotics. Cells used in this study include human leukemia cells (NALM-6 and MOLT-3).
(§3) The cells were incubated with the various compounds for 24-36 hours at 37° C. in a humidified 5% CO2 atmosphere. To each well, 10 μl of MTT (0.5 mg/ml final concentration) was added and the plates were incubated at 37° C. for 4 hours to allow MTT to form formazan crystals by reacting with metabolically active cells. The formazan crystals were solubilized overnight at 37° C. in a solution containing 10% SDS in 0.01 M HCl. The absorbance of each well was measured in a microplate reader (Labsystems) at 540 nm and a reference wavelength of 690 nm. To translate the OD540 values into the number of live cells in each well, the OD540 values were compared to those on standard OD540-versus-cell number curves generated for each cell line. The percent survival was calculated using the formula:
(§4) % Survival=live cell number [test]/live cell number [control]×100
(§5) The IC50 values were calculated by non-linear regression analysis.
On the technique in general: Formazan colour is commonly taken as a measure of viable cells.

Data set [3] relates to NALM-6 human leukemia cells. The data set can be described thus: MTT cytotoxicity assay, NALM-6. The class given is cell-based. The conditions noted are these: for ED50 Nalm6: Table 4, individual lead compounds; for relative cytotoxic activity: ranking among the 21 individual compounds, Nalm6, MTT. How it is done:
Stage (4): deconvolution and re-synthesis were guided by an iterative screening procedure during which the cytotoxic anti-cancer activities of the individual sub-libraries were measured against the human leukemia cell lines NALM-6 and MOLT-3 using MTT assays. […] However, this is not always true when even-splitting was not possible or some special consideration. […] Another special example is the small 10-member sublibrary CL2.
as §1, §2, §3, §4, §5

Data on eleven molecules can be found in US20020103380A1, “Thiourea and urea liquid-phase combinatorial libraries: synthesis and apoptosis induction” (Parker Hughes Institute, priority 1999, published 2002).

Converted amounts (≈) assume the structure as drawn.

For the molecule `Fc1ccc(CCNC(=S)NCCc2ccc(F)cc2)cc1` [CL2j], in data set [1], the “stability (remark in place of IC50)” value is on record as “unstable compound”.

Consider `Fc1ccc(CCNC(=S)NCCc2ccc(Cl)cc2Cl)cc1` [CL10b], for which the “relative cytotoxic / biological activity” value in data set [2] was “most active”.

Regarding `COc1ccc(OC)c(CCNC(=S)NCCc2ccccc2OC)c1` [CL12a], the “relative cytotoxic / biological activity” value in data set [2] is “most active”.

Take `COc1ccccc1CCNC(=S)NCCc1ccc(Cl)cc1Cl` [CL12b]: the “relative cytotoxic / biological activity” value in data set [2] is “most active”.

`CC(NC(=S)NC(C)c1ccccc1)c1ccccc1` (stereo not drawn) [Compound L34A2A2]: the “ED50 Nalm6” value in data set [3] amounted to 50 µg/mL (≈ 176 µM).

For the molecule `CC(NC(=S)NC(c1ccccc1)c1ccccc1)c1ccccc1` (stereo not drawn) [Compound L34A2A3], the “ED50 Nalm6” value in data set [3] turned out to be 50 µg/mL (≈ 144 µM).

As for `CC(NC(=S)NC(c1ccccc1)(c1ccccc1)c1ccccc1)c1ccccc1` (stereo not drawn) [Compound L34A2A4], the “ED50 Nalm6” value in data set [3] was 50 µg/mL (≈ 118 µM).

As to `S=C(NC(c1ccccc1)c1ccccc1)NC(c1ccccc1)c1ccccc1` [Compound L34A3A3], the “ED50 Nalm6” value in data set [3] was greater than 100 µg/mL.

Consider `S=C(NC(Cc1ccccc1)c1ccccc1)NC(c1ccccc1)c1ccccc1` (stereo not drawn) [Compound L34A3A5, 1-(1,2-Diphenylethyl)-3-(diphenylmethyl)-2-thiourea], for which, in data set [3], the “ED50 Nalm6” value is less than 10 µg/mL and the “relative cytotoxic activity” value was “most active”. In data set [2], the IC50 (usually the midpoint of a concentration-inhibition curve) was less than 10 µg/mL.

With `S=C(NC(c1ccccc1)(c1ccccc1)c1ccccc1)NC(c1ccccc1)(c1ccccc1)c1ccccc1` [Compound L34A4A4], the “ED50 Nalm6” value in data set [3] came to 30 µg/mL (≈ 53.5 µM).

For `S=C(NC(Cc1ccccc1)c1ccccc1)NC(Cc1ccccc1)c1ccccc1` (stereo not drawn) [Compound L34A5A5, 1,3-Bis(1,2-diphenylethyl)-2-thiourea], in data set [3], the “ED50 Nalm6” value is less than 10 µg/mL and the “relative cytotoxic activity” value is “most active”. The molecule further showed an IC50 in data set [2] of less than 10 µg/mL.
